Columns and labels:
Experiment in all cases: relative viability (nuclei count vs DMSO), 5 days (fraction); higher = more cells survive
Pazopanib + Tozasertib = compound: Cc1ccc(Nc2nccc(N(C)c3ccc4c(C)n(C)nc4c3)n2)cc1S(N)(=O)=O [Pazopanib] + Cc1cc(Nc2cc(N3CCN(C)CC3)nc(Sc3ccc(NC(=O)C4CC4)cc3)n2)n[nH]1 [Tozasertib] (partner 0.1 µM)
Outline: (§1)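 Values are medians from duplicate plates. Each reflects relative viability, defined as the nuclei count of treated wells over that of vehicle wells. Lung cancer cell lines in 1536-well plates were pin-tool dosed one day after seeding with one drug alone or with a fixed anchor-drug dose plus five library-drug doses (not always all listed) in √10 steps, then fixed, stained and imaged at 4× after 5 days.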

Pazopanib + Decitabine = compound: Cc1ccc(Nc2nccc(N(C)c3ccc4c(C)n(C)nc4c3)n2)cc1S(N)(=O)=O [Pazopanib] + Nc1ncn([C@H]2C[C@H](O)[C@@H](CO)O2)c(=O)n1 [Decitabine] (partner 2 µM)
Outline: as §1

Pazopanib + Phenformin = compound: Cc1ccc(Nc2nccc(N(C)c3ccc4c(C)n(C)nc4c3)n2)cc1S(N)(=O)=O [Pazopanib] + N=C(N)NC(=N)NCCc1ccccc1 [Phenformin] (partner 250 µM)
Outline: as §1

Ponatinib + Bortezomib = compound: Cc1ccc(C(=O)Nc2ccc(CN3CCN(C)CC3)c(C(F)(F)F)c2)cc1C#Cc1cnc2cccnn12 [Ponatinib] + CC(C)C[C@H](NC(=O)[C@H](Cc1ccccc1)NC(=O)c1cnccn1)B(O)O [Bortezomib] (partner 0.002 µM)
Outline: as §1

## UMC-11
Pazopanib + Tozasertib; first compound 0.01 µM
  relative viability: 0.196
Pazopanib + Tozasertib; first compound 0.03162 µM
  relative viability: 0.19
Pazopanib + Tozasertib; first compound 0.1 µM
  relative viability: 0.208
Pazopanib + Tozasertib; first compound 0.3162 µM
  relative viability: 0.206
Pazopanib + Tozasertib; first compound 1 µM
  relative viability: 0.211
Pazopanib + Decitabine; first compound 0.01 µM
  relative viability: 0.598
Pazopanib + Decitabine; first compound 0.03162 µM
  relative viability: 0.686
Pazopanib + Decitabine; first compound 0.1 µM
  relative viability: 0.616
Pazopanib + Decitabine; first compound 0.3162 µM
  relative viability: 0.578
Pazopanib + Decitabine; first compound 1 µM
  relative viability: 0.49
Pazopanib + Phenformin; first compound 0.01 µM
  relative viability: 0.347
Pazopanib + Phenformin; first compound 0.03162 µM
  relative viability: 0.339
Pazopanib + Phenformin; first compound 0.1 µM
  relative viability: 0.361
Pazopanib + Phenformin; first compound 0.3162 µM
  relative viability: 0.32
Pazopanib + Phenformin; first compound 1 µM
  relative viability: 0.341
Ponatinib + Bortezomib; first compound 0.002 µM
  relative viability: 0.653
Ponatinib + Bortezomib; first compound 0.006325 µM
  relative viability: 0.769
Ponatinib + Bortezomib; first compound 0.06325 µM
  relative viability: 0.921
Ponatinib + Bortezomib; first compound 0.2 µM
  relative viability: 0.646
